ChEMBL document CHEMBL4177562, “Synthetic ligand promotes gene expression by affecting GC sequence in promoter” (2017)
Active and inactive are the calls of the source. The calls are words filed in the database; no cut-off is given here.

Key:
HeLa [1] = test: Upregulation of GCNA mRNA expression in human HeLa cells at 0.1 uM after 24 hrs by RT-qPCR analysis; format: functional, cell-based
HeLa [2] = test: Upregulation of NBPF10 mRNA expression in human HeLa cells at 0.1 uM after 24 hrs by RT-qPCR analysis; format: functional, cell-based
HeLa [3] = test: Upregulation of OASL mRNA expression in human HeLa cells at 0.1 uM after 24 hrs by RT-qPCR analysis; format: functional, cell-based
HeLa [4] = test: Upregulation of IFIT2 mRNA expression in human HeLa cells at 0.1 uM after 24 hrs by RT-qPCR analysis; format: functional, cell-based
HeLa [5] = test: Upregulation of SULT4A1 mRNA expression in human HeLa cells at 0.1 uM after 24 hrs by RT-qPCR analysis; format: functional, cell-based
HeLa [6] = test: Downregulation of STK39 mRNA expression in human HeLa cells at 0.1 uM after 24 hrs by RT-qPCR analysis; format: functional, cell-based
HeLa [7] = test: Downregulation of CERS5 mRNA expression in human HeLa cells at 0.1 uM after 24 hrs by RT-qPCR analysis; format: functional, cell-based
HeLa [8] = test: Downregulation of COQ9 mRNA expression in human HeLa cells at 0.1 uM after 24 hrs by RT-qPCR analysis; format: functional, cell-based
HeLa [9] = test: Upregulation of nucleus-related genes (GO:0005634) in human HeLa cells measured at 12 hrs; format: functional
HeLa [10] = test: Upregulation of nucleoplasm-related genes (GO:0005654) in human HeLa cells measured at 12 hrs; format: functional
HeLa [11] = test: Upregulation of transcription/DNA-templated-related genes (GO:0006351) in human HeLa cells measured at 12 hrs; format: functional
HeLa [12] = test: Upregulation of cytoplasm-related genes (GO:0005737) in human HeLa cells measured at 12 hrs; format: functional
HeLa [13] = test: Upregulation of negative regulation of inclusion body assembly-related genes (GO:0090084) in human HeLa cells measured at 12 hrs; format: functional
HeLa [14] = test: Upregulation of microtubule cytoskeleton-related genes (GO:0015630) in human HeLa cells measured at 24 hrs; format: functional
HeLa [15] = test: Upregulation of cytoplasm-related genes (GO:0005737) in human HeLa cells measured at 24 hrs; format: functional
HeLa [16] = test: Upregulation of mitotic nuclear division-related genes (GO:0007067) in human HeLa cells measured at 24 hrs; format: functional
HeLa [17] = test: Upregulation of spindle midzone-related genes (GO:0051233) in human HeLa cells measured at 24 hrs; format: functional
HeLa [18] = test: Upregulation of nucleolus-related genes (GO:0005730) in human HeLa cells measured at 24 hrs; format: functional
HeLa [19] = test: Upregulation of spindle midzone-related genes (GO:0051233) in human HeLa cells measured at 12 to 24 hrs; format: functional
HeLa [20] = test: Upregulation of cytoplasm-related genes (GO:0005737) in human HeLa cells measured at 12 to 24 hrs; format: functional
HeLa [21] = test: Upregulation of positive regulation of cytokinesis-related genes (GO:0032467) in human HeLa cells measured at 12 to 24 hrs; format: functional
HeLa [22] = test: Downregulation of mitochondrial matrix-related genes (GO:0005759) in human HeLa cells measured at 12 hrs; format: functional
HeLa [23] = test: Downregulation of primary cilium-related genes (GO:0072372) in human HeLa cells measured at 12 hrs; format: functional
HeLa [24] = test: Downregulation of peroxisome-related genes (GO:0005777) in human HeLa cells measured at 12 hrs; format: functional
HeLa [25] = test: Downregulation of serine C-palmitoyltransferase complex-related genes (GO:0017059) in human HeLa cells measured at 12 hrs; format: functional
HeLa [26] = test: Downregulation of ciliary tip-related genes (GO:0097542) in human HeLa cells measured at 12 hrs; format: functional
HeLa [27] = test: Downregulation of proteinaceous extracellular matrix-related genes (GO:0005578) in human HeLa cells measured at 24 hrs; format: functional
HeLa [28] = test: Downregulation of extracellular region-related genes (GO:0005576) in human HeLa cells measured at 24 hrs; format: functional
HeLa [29] = test: Downregulation of extracellular exosome-related genes (GO:0070062) in human HeLa cells measured at 24 hrs; format: functional
HeLa [30] = test: Downregulation of cell periphery-related genes (GO:0071944) in human HeLa cells measured at 24 hrs; format: functional
HeLa [31] = test: Downregulation of progesterone metabolic process-related genes (GO:0042448) in human HeLa cells measured at 24 hrs; format: functional
HeLa [32] = test: Downregulation of oxidation-reduction process-related genes (GO:0055114) in human HeLa cells measured at 12 to 24 hrs; format: functional; parameters: scale not given: the % may be the effect or the level left
HeLa [33] = test: Downregulation of apical plasma membrane-related genes (GO:0016324) in human HeLa cells measured at 12 to 24 hrs; format: functional
HeLa [34] = test: Downregulation of skin development-related genes (GO:0043588) in human HeLa cells measured at 12 to 24 hrs; format: functional
[35] = Binding affinity to TGGC of 5'-Biotinylated-dCAG CGT GTG GTT TTT GGCTTT ACC ACA CGC TG-3' (unknown origin) after 30 secs by SPR analysis
[36] = Binding affinity to CGGT of 5'-Biotinylated-dCAG CGT GTG GTT TTC GGTTTT ACC ACA CGC TG-3' (unknown origin) after 30 secs by SPR analysis
[37] = Binding affinity to GGGC of 5'-Biotinylated-dCAG CGT GTG GTT TTG GGCTTT ACC ACA CGC TG-3' (unknown origin) after 30 secs by SPR analysis
[38] = Binding affinity to GCGG of 5'-Biotinylated-dCAG CGT GTG GTT TTG CGGTTT ACC ACA CGC TG-3' (unknown origin) after 30 secs by SPR analysis
[39] = Binding affinity to GGGG of 5'-Biotinylated-dCAG CGT GTG GTT TTG GGGTTT ACC ACA CGC TG-3' (unknown origin) after 30 secs by SPR analysis
[40] = Binding affinity to CGGG of 5'-Biotinylated-dCAG CGT GTG GTT TTC GGGTTT ACC ACA CGC TG-3' (unknown origin) after 30 secs by SPR analysis
[41] = Binding affinity to TCTT of 5'-Biotinylated-dCAG CGT GTG GTT TTT CTTTTT ACC ACA CGC TG-3' (unknown origin) at 1.25 to 20 nM after 30 secs by SPR analysis
[42] = Binding affinity to TTTT of 5'-Biotinylated-dCAG CGT GTG GTT TTT TTTTTT ACC ACA CGC TG-3' (unknown origin) at 1.25 to 20 nM after 30 secs by SPR analysis
[43] = Binding affinity to AAAA of 5'-Biotinylated-dCAG CGT GTG GTT TTA AAATTT ACC ACA CGC TG-3' (unknown origin) at 1.25 to 20 nM after 30 secs by SPR analysis
[44] = Binding affinity to TTTA of 5'-Biotinylated-dCAG CGT GTG GTT TTT TTATTT ACC ACA CGC TG-3' (unknown origin) at 1.25 to 20 nM after 30 secs by SPR analysis
[45] = Binding affinity to CACA of 5'-Biotinylated-dCAG CGT GTG GTT TTC ACATTT ACC ACA CGC TG-3' (unknown origin) at 1.25 to 20 nM after 30 secs by SPR analysis
[46] = Binding affinity to ATTT of 5'-Biotinylated-dCAG CGT GTG GTT TTA TTTTTT ACC ACA CGC TG-3' (unknown origin) at 1.25 to 20 nM after 30 secs by SPR analysis
[47] = Binding affinity to GCGG of 5'-Biotinylated-dCAG CGT GTG GTT TTG C(Me)GGTTT ACC ACA CGC TG-3' (unknown origin) at 1.25 to 20 nM after 30 secs by SPR analysis

Cc1ccc2ccc(NC(=O)OCCCN(CCCCCCCCN(CCCOC(=O)Nc3ccc4ccc(C)nc4n3)CCCOC(=O)Nc3ccc4ccc(C)nc4n3)CCCOC(=O)Nc3ccc4ccc(C)nc4n3)nc2n1
Activity (HeLa [1]): Active
Activity (HeLa [2]): Active
Activity (HeLa [3]): Active
Activity (HeLa [4]): Active
Activity (HeLa [5]): Active
Activity (HeLa [6]): Active
Activity (HeLa [7]): Active
Activity (HeLa [8]): Active
Activity (HeLa [9]): 43.78%
Activity (HeLa [10]): 26.27%
Activity (HeLa [11]): 20.28%
Activity (HeLa [12]): 34.56%
Activity (HeLa [13]): 2.3%
Activity (HeLa [14]): 4.62%
Activity (HeLa [15]): 33.85%
Activity (HeLa [16]): 7.69%
Activity (HeLa [17]): 3.08%
Activity (HeLa [18]): 9.23%
Activity (HeLa [19]): 5.56%
Activity (HeLa [20]): 33.33%
Activity (HeLa [21]): 5.55%
Activity (HeLa [22]): 3.74%
Activity (HeLa [23]): 2.14%
Activity (HeLa [24]): 2.14%
Activity (HeLa [25]): 1.07%
Activity (HeLa [26]): 1.6%
Activity (HeLa [27]): 12.24%
Activity (HeLa [28]): 22.45%
Activity (HeLa [29]): 24.49%
Activity (HeLa [30]): 4.08%
Activity (HeLa [31]): 4.08%
Activity (HeLa [32]): 16.67%
Activity (HeLa [33]): 10%
Activity (HeLa [34]): 6.67%
Activity [35]: Dose-dependent effect
Activity [36]: Dose-dependent effect
Activity [37]: Dose-dependent effect
Activity [38]: Dose-dependent effect
Activity [39]: Dose-dependent effect
Activity [40]: Dose-dependent effect
Activity [41]: inactive
Activity [42]: inactive
Activity [43]: inactive
Activity [44]: inactive
Activity [45]: inactive
Activity [46]: inactive
Activity [47]: inactive
